Data as given in patent publication US20260240154A1, “GLOBODERA PALLIDA CONTROL AGENT” (National Agriculture and Food Research Organization, priority 2021, published 2026).

Columns and labels:
[1] = test system: Gp; conditions: relative to natural hatching factor; cited from earlier work
[2] = test system: Globodera pallida; experiment: Reduction test of Globodera pallida egg density (pot test); assay type: in vivo; conditions: 30 days, three pots; for Average density reduction rate at 10 ppm (%): 32 mL of 10 ppm test reagent solution in 800 mL field soil; for Average density reduction rate at 100 ppm (%): 32 mL of 100 ppm test reagent solution in 800 mL field soil
Procedure: After 20 mg of compound (I) was dissolved in 1 mL of dimethylsulfoxide, 199 mL of a 0.1% polyoxyethylene sorbitan monolaurate aqueous solution was added thereto, to obtain a test reagent solution with a concentration of compound (I) of 100 ppm. Further, this was diluted 10-fold with distilled water, to prepare a 10 ppm test reagent solution.
Soil was collected from a field infected with Globodera pallida, and the egg density was investigated, as follows. The cysts were separated from 100 g of the dried soil by dry flotation-sieving method and crushed to release nematode eggs, and the number of eggs was counted under a stereomicroscope. This was taken as the initial density.
32 mL of the test reagent solution adjusted to 100 ppm or 10 ppm was added to 800 mL of the collected field soil, followed by stirring well. It was packed in a plastic pot (upper diameter: 10.5 cm, height: 22.5 cm), and placed in a greenhouse without any planting for 30 days. Each pot was watered with 26 mL of distilled water every 6 to 7 days.
After 30 days, the soil was spread on an aluminum bat and air-dried, and the cysts were separated from 100 g of the dry soil in the same manner as above, to count the number of remaining eggs (density after treatment). Three pots were installed per concentration for each compound, and the average density reduction rate was calculated from the initial density and the density after treatment.

[3] = test system: Globodera pallida eggs; experiment: Hatching accelerating effect evaluation test for Globodera pallida (liquid immersion test); assay type: in vivo; conditions: 1 mL of 2 ppm test reagent solution added to 1 mL egg suspension; 16° C.; about 2 weeks; two replicates
Procedure: A predetermined amount of compound (I) was dissolved in an aqueous solution containing 0.05% (v/v) of polyoxyethylene sorbitan monolaurate (Tween20) to prepare a 100 ppm solution of compound (I).
The 100 ppm solution of compound (I) was further diluted with a 0.05% (v/v) Tween20 aqueous solution to prepare a test reagent solution with a concentration of compound (I) of 2 ppm.
The cysts of Globodera pallida increased in a greenhouse before the previous year were isolated from the soil, immersed in distilled water and kept at 16° C. for about 2 weeks were crushed with a scalpel and the eggs were taken out to obtain an egg suspension. After preparing a density of approximately 600 eggs per mL, Tween 20 was added to a concentration of 0.05% (v/v). 1 mL of this egg suspension was put into a 13.5 mL screw cap glass vial (inner diameter: 2.1 cm, height: 4.8 cm), and 1 mL each of a test reagent solution with a concentration of compound (I) of 2 ppm was added. It was covered and kept at 16° C.
About 2 weeks later, 1 mL was taken out, and the number of hatching larvae and the number of eggs were counted under a stereomicroscope. Two replicates were installed for each compound, and the average hatching rate was calculated.

[4] = test system: Globodera pallida; experiment: Reduction test of Globodera pallida egg density (field plot test); assay type: in vivo; conditions: for Gp density reduction rate: about 80 days, average of four plots
Procedure: With reference to Formulation Example 4, a 10% solution of compound No. 2 was prepared. This 10% solution was diluted with distilled water, to prepare test reagent solutions with concentrations of 300 ppm, 30 ppm, and 3 ppm.
Round plots (diameter:30 cm) were installed in a field infected with Globodera pallida, and the reducing effect of reagent solution treatment on the nematode egg density in soil was investigated. Each plot was prepared by burying a cylinder (30 cm in diameter and 25 cm in height) made of polyethylene sheet to a depth of 20 cm. Test plots were installed in the field and soil samples in each plot were collected for the initial density survey. Then, the test reagent solution of each concentration was sprayed at a ratio of 5 or 1 L per square meter and the soil in the plot was mixed with a shovel to a depth of 15 cm. As a result, treatments with four different doses of compound (1500, 300, 30 and 3 g per 10 a) were prepared.
About 80 days later, the soil in each plots was collected, and the nematode egg density in the soil was investigated, as follows. The cysts were separated from 100 g of dried soil by a sieving cyst flow method, crushed with a scalpel to extract eggs, suspended in distilled water to extract a certain amount, and the number of eggs was counted under a stereomicroscope.
Four plots were installed for each concentration, and the average density reduction rate was calculated from the initial density and final density.

Molecule | Hatching activity, % of that of the natural hatching factor [1] | Average density reduction rate at 10 ppm (%) [2] [%] | Average density reduction rate at 100 ppm (%) [2] [%] | Average hatching rate (%) [3] [%] | other results
[Na+].[Na+].[Na+].[O]=[V]([O-])([O-])[O-] [sodium orthovanadate] | ~60% |  |  |  | 
sodium metavanadate | ~70% |  |  |  | 
CC1(C)NC(=O)CC1c1ccc(F)c(F)c1 (stereo not drawn) [Compound 12, 5,5-dimethyl-4-(3,4-difluoro-phenyl)-2-pyrrolidinone] |  | 97.7 | 98.8 | 65.4 | 
CC1(C)NC(=O)CC1c1ccc(Br)cc1 (stereo not drawn) [Compound 4, 5,5-dimethyl-4-(4-bromophenyl)-2-pyrrolidinone] |  | 98.8 | 98.9 | 97.9 | 
CC1=NN(c2ccc([N+](=O)[O-])cc2)C(=O)C1[N+](=O)[O-] (stereo not drawn) [picrolonic acid] | about 30% |  |  |  | 
Cc1ccc(C2=CC(=O)OC2(C)C)c(C)c1 [Compound D-15] |  | 85.8 | 98.2 | 94.9 | 
N#C[S-].[Na+] [sodium thiocyanate] | about 30% |  |  |  | 
Cc1ccc(C2CC(=O)NC2(C)C)cc1 (stereo not drawn) [Compound 2, 5,5-dimethyl-4-(4-methylphenyl)-2-pyrrolidinone] |  | 95.4 | 98.0 | 94.3 | Gp density reduction rate ([4]; dose 3 g/10 a): 65.6%; Gp density reduction rate ([4]; dose 300 g/10 a): 94.4%; Gp density reduction rate ([4]; dose 1500 g/10 a): 98.4%; Reduction of Gp density in the soil ([4]; dose of 30 g or more per 10a): ≥ 80%; Gp density reduction rate ([4]; dose printed as 'g/10 a' (third dose level)): 88.8%
Cc1ccc(C2CCC(=O)NC2(C)C)cc1 (stereo not drawn) [Compound A-3, 6,6-dimethyl-5-(p-tolyl)piperidin-2-one] |  | 94.9 | 97.2 | 97.2 | 
CC1(C)NC(=O)CC1c1ccc(Cl)cc1 (stereo not drawn) [Compound 3, 5,5-dimethyl-4-(4-chlorophenyl)-2-pyrrolidinone] |  | 97.4 | 98.5 | 95.2 | 
Cc1ccc(C2CC(=O)OC2(C)C)cc1 (stereo not drawn) [Compound 18, 5,5-dimethyl-4-(p-tolyl)dihydrofuran-2(3H)-one] |  | 81.7 | 96.2 | 97.1 | 
